Reference: publication PMC6150201, “Synthesis and Antitumor Activity of Novel Arylpiperazine Derivatives Containing the Saccharin Moiety” (Molecules : A Journal of Synthetic Chemistry and Natural …, 2017)
Read-outs that look alike come from different tables or passages of the source.

Tests used:
PC-3 cells [1] = experiment: In vitro cytotoxicity, CCK-8 assay, PC-3 cells; assay type: cell-based, human; details: for IC50: PC-3, androgen-insensitive human prostate cancer cell line, CCK-8, 24 h exposure, mean ± SD of three experiments; for selective activity for PC-3 cells over other cancer cells: from IC50 comparison
Procedure: (§1) The synthesized target compounds 4–21 were evaluated for their in vitro cytotoxic activities against three human prostate cancer cell lines (PC-3, LNCaP, and DU145) and compared with their effects on the human prostate epithelial cell line WPMY-1 by CCK-8 assay.
(§2) PC-3 and WPMY-1 cells were cultured in Dulbecco’s modified Eagle’s medium (DMEM, Invitrogen, Carlsbad, CA, USA) supplemented with 10% fetal bovine serum (FBS, Hyclone, Logan, UT, USA), 100 U/mL penicillin, and 0.1 mg/mL streptomycin (Invitrogen). DU145 cells were cultured in RPMI1640 media supplemented with 10% fetal bovine serum (FBS, Hyclone), 100 U/mL penicillin, and 0.1 mg/mL streptomycin (Invitrogen). LNCaP cells were cultured in F12 media supplemented with 10% fetal bovine serum (FBS, Hyclone), 100 U/mL penicillin, and 0.1 mg/mL streptomycin (Invitrogen). The cells were incubated at 37 °C in a humidified atmosphere with 5% CO2.
(§3) Cell proliferation was measured with the Cell Counting Kit-8 (CCK-8) assay kit (Dojindo Corp., Kumamoto, Japan). Cells were harvested during their logarithmic growth phase, seeded in 96-well plates at a density of 1 × 10^5 cells/mL, and cultured at 37 °C in a humidified incubator (5% CO2) for 24 h, followed by exposure to various concentrations of compounds tested for 24 h. Subsequently, 10 μL of CCK-8 (Dojindo) was added to each well, and the cells were then incubated for an additional 1 h at 37 °C to convert WST-8 into formazan. Cell growth inhibition was determined by measuring the absorbance (Abs) at λ = 450 nm using a microplate reader. Three independent experiments were performed. Cell growth inhibition was calculated according to the following equation: Growth inhibition = (1 − OD of treated cells / OD of control cells) × 100%
(§4) The half maximal inhibitory concentrations (IC50) were obtained from a linear regression analysis of the concentration-response curves plotted for each tested compound.

LNCaP cells [2] = experiment: In vitro cytotoxicity, CCK-8 assay, LNCaP cells; assay type: cell-based, human; details: for IC50: LNCaP, androgen-sensitive human prostate cancer cell line, CCK-8, 24 h exposure, mean ± SD of three experiments; for selective activity for LNCaP cells over other cancer cells: from IC50 comparison
Procedure: as §1, §2, §3, §4

DU145 cells [3] = experiment: In vitro cytotoxicity, CCK-8 assay, DU145 cells; assay type: cell-based, human; details: for IC50: androgen-insensitive human prostate cancer cell line, CCK-8, 24 h exposure, mean ± SD of three experiments; for selective activity for DU145 cells over other cancer cells: in words, from IC50 comparison
Procedure: as §1, §2, §3, §4

WPMY-1 cells = experiment: In vitro cytotoxicity, CCK-8 assay, WPMY-1 prostate epithelial cells; assay type: cell-based, human; details: for IC50: WPMY-1, human prostate epithelial cell line, CCK-8, 24 h exposure, mean ± SD of three experiments
Procedure: as §1, §2, §3, §4

PC-3 cells [4] = system: PC-3 cells; parameters: method as in PMID 24910245; details: reference compound, SD not given; cited from earlier work
LNCaP cells [5] = system: LNCaP cells; parameters: method as in PMID 24910245; details: reference compound, SD not given; cited from earlier work
DU145 cells [6] = system: DU145 cells; parameters: method as in PMID 24910245; details: reference compound, SD not given; cited from earlier work

| melting point [°C] | SMILES | IC50 (PC-3 cells [1]) [µM] | IC50 (LNCaP cells [2]) [µM] | IC50 (DU145 cells [3]; Homo sapiens, DU-145, 24 h) [µM] | selective activity for DU145 cells over other cancer cells (DU145 cells [3]) | IC50 (WPMY-1 cells) [µM] | selective activity for PC-3 cells over other cancer cells (PC-3 cells [1]; in words) | IC50 (DU145 cells [3]) [µM] | selective activity for LNCaP cells over other cancer cells (LNCaP cells [2]; in words) | cytotoxic activity for PC-3 cells (in words) (PC-3 cells [1]; in words) | cytotoxic activity for LNCaP cells (in words) (LNCaP cells [2]; in words) | cytotoxic effects on human epithelial prostate normal cells WPMY-1 (in words) (WPMY-1 cells) | IC50 (PC-3 cells [4]) [µM] | IC50 (LNCaP cells [5]) [µM] | IC50 (DU145 cells [6]) [µM] |
| --- | --- | --- | --- | --- | --- | --- | --- | --- | --- | --- | --- | --- | --- | --- | --- |
| 126 to 127 | Cc1cccc(N2CCN(CCc3ccc(CN4C(=O)c5ccccc5S4(=O)=O)cc3)CC2)c1 [Compound 7, Saccharin N-(1-(4-(methyl)phenethyl)-4-m-tolylpiperazine)] | > 50 | > 50 | 3.65 ± 0.1 | excellent selective activity | > 50 |  |  |  |  |  |  |  |  |  |
| 105 to 106 | O=C1c2ccccc2S(=O)(=O)N1Cc1ccc(CCN2CCN(c3ccc(Br)cc3)CC2)cc1 [Compound 18, Saccharin N-(1-(4-(methyl)phenethyl)-4-(4-bromophenyl)piperazine)] | 2.25 ± 0.07 | > 50 | 9.05 ± 0.23 |  | > 50 |  |  |  |  |  |  |  |  |  |
| 153 to 154 | O=C1c2ccccc2S(=O)(=O)N1Cc1ccc(CCN2CCN(c3ncccn3)CC2)cc1 [Compound 6, Saccharin N-(2-(4-(4-(methyl)phenethyl)piperazin-1-yl)pyrimidine)] | 4.84 ± 0.17 | > 50 | > 50 |  | 48.3 ± 0.56 | excellent selective activity |  |  |  |  |  |  |  |  |
| 143 to 144 | O=C1c2ccccc2S(=O)(=O)N1Cc1ccc(CCN2CCN(c3cccc(Cl)c3)CC2)cc1 [Compound 15, Saccharin N-(1-(4-(methyl)phenethyl)-4-(3-chlorophenyl)piperazine)] | 2.74 ± 0.11 | 3.43 ± 0.16 | > 50 |  | > 50 |  |  |  |  |  |  |  |  |  |
| 147 to 148 | O=C1c2ccccc2S(=O)(=O)N1Cc1ccc(CCN2CCN(c3ccccc3)CC2)cc1 [Compound 4, Saccharin N-(1-(4-(methyl)phenethyl)-4-phenylpiperazine)] | > 50 | > 50 | < 2 | excellent selective activity | > 50 |  | 1.28 ± 0.04 |  |  |  |  |  |  |  |
| 146 to 147 | N#Cc1ccccc1N1CCN(CCc2ccc(CN3C(=O)c4ccccc4S3(=O)=O)cc2)CC1 [Compound 19, Saccharin N-(2-(4-(4-(methyl)phenethyl)piperazin-1-yl)benzonitrile)] | > 50 | 5.14 ± 0.16 | > 50 |  | 39.15 ± 0.17 |  |  | excellent selective activity |  |  |  |  |  |  |
| 113 to 114 | O=C1c2ccccc2S(=O)(=O)N1Cc1ccc(CCN2CCN(c3ccc(F)cc3F)CC2)cc1 [Compound 13, Saccharin N-(1-(4-(methyl)phenethyl)-4-(2,4-difluorophenyl)piperazine)] | > 50 | 5.03 ± 0.13 | > 50 |  | > 50 |  |  | excellent selective activity |  |  |  |  |  |  |
| 158 to 159 | O=C1c2ccccc2S(=O)(=O)N1Cc1ccc(CCN2CCN(c3ccc(Cl)cc3)CC2)cc1 [Compound 16] | > 50 | > 50 | > 50 |  |  |  |  |  | weak cytotoxic activity | weak cytotoxic activity |  |  |  |  |
| 134 to 135 | COc1cccc(N2CCN(CCc3ccc(CN4C(=O)c5ccccc5S4(=O)=O)cc3)CC2)c1 [Compound 9, Saccharin N-(1-(4-(methyl)phenethyl)-4-(3-methoxyphenyl)piperazine)] | 5.43 ± 0.18 | > 50 | > 50 |  | > 50 | excellent selective activity |  |  |  |  |  |  |  |  |
| 108 to 109 | O=C1c2ccccc2S(=O)(=O)N1Cc1ccc(CCN2CCN(c3ccc(C(F)(F)F)cc3)CC2)cc1 [Compound 21, Saccharin N-(1-(4-(methyl)phenethyl)-4-(4-(trifluoromethyl)phenyl)piperazine)] | 3.73 ± 0.08 | > 50 | > 50 |  |  | excellent selective activity |  |  |  |  |  |  |  |  |
| 178 to 179 | O=C1c2ccccc2S(=O)(=O)N1Cc1ccc(CCN2CCN(c3cccc(Cl)c3Cl)CC2)cc1 [Compound 17, Saccharin N-(1-(4-(methyl)phenethyl)-4-(2,3-dichlorophenyl)piperazine)] | > 50 | 4.08 ± 0.15 | > 50 |  | > 50 |  |  | excellent selective activity |  |  | weak cytotoxic effects |  |  |  |
|  | COc1ccccc1N1CCN(CC(O)COc2cccc3ccccc23)CC1 (centres unmarked) [Naftopidil, reference compound] | 42.1 ± 0.79 | 22.4 ± 0.61 | 34.58 ± 0.31 |  | > 50 |  |  |  |  |  |  |  |  |  |
| 137 to 138 | O=C1c2ccccc2S(=O)(=O)N1Cc1ccc(CCN2CCN(c3ccccc3F)CC2)cc1 [Compound 11, Saccharin N-(1-(4-(methyl)phenethyl)-4-(2-fluorophenyl)piperazine)] | > 50 | 47.5 ± 2.17 | > 50 |  | > 50 |  |  |  |  |  |  |  |  |  |
| 152 to 153 | O=C1c2ccccc2S(=O)(=O)N1Cc1ccc(CCN2CCN(c3ccc(F)cc3)CC2)cc1 [Compound 12, Saccharin N-(1-(4-(methyl)phenethyl)-4-(4-fluorophenyl)piperazine)] | > 50 | > 50 | < 2 | excellent selective activity | > 50 |  | 1.14 ± 0.1 |  |  |  | weak cytotoxic effects |  |  |  |
| 149 to 150 | O=C1c2ccccc2S(=O)(=O)N1Cc1ccc(CCN2CCN(c3ccccn3)CC2)cc1 [Compound 5, Saccharin N-(1-(4-(methyl)phenethyl)-4-(pyridin-2-yl)piperazine)] | > 50 | > 50 | 3.57 ± 0.08 | excellent selective activity | > 50 |  |  |  |  |  |  |  |  |  |
| 149 to 150 | COc1ccc(N2CCN(CCc3ccc(CN4C(=O)c5ccccc5S4(=O)=O)cc3)CC2)cc1 [Compound 10, Saccharin N-(1-(4-(methyl)phenethyl)-4-(4-methoxyphenyl)piperazine)] | 4.38 ± 0.13 | > 50 | 2.28 ± 0.05 |  | > 50 |  |  |  |  |  |  |  |  |  |
|  | CC(C)(C)NC(=O)[C@H]1CC[C@H]2[C@@H]3CC[C@H]4NC(=O)C=C[C@]4(C)[C@H]3CC[C@]12C [Finasteride] |  |  |  |  |  |  |  |  |  |  |  | 17.8 | 14.5 | 13.5 |
| 179 to 180 | N#Cc1ccc(N2CCN(CCc3ccc(CN4C(=O)c5ccccc5S4(=O)=O)cc3)CC2)cc1 [Compound 20, Saccharin N-(4-(4-(4-(methyl)phenethyl)piperazin-1-yl)benzonitrile)] | 2.66 ± 0.04 | 3.43 ± 0.1 | > 50 |  | 46.3 ± 0.51 |  |  |  |  |  |  |  |  |  |
| 130 to 131 | Cc1ccc(N2CCN(CCc3ccc(CN4C(=O)c5ccccc5S4(=O)=O)cc3)CC2)cc1 [Compound 8, Saccharin N-(1-(4-(methyl)phenethyl)-4-p-tolylpiperazine)] | > 50 | > 50 | > 50 |  |  |  |  |  |  |  |  |  |  |  |
| 135 to 136 | O=C1c2ccccc2S(=O)(=O)N1Cc1ccc(CCN2CCN(c3ccccc3Cl)CC2)cc1 [Compound 14, Saccharin N-(1-(4-(methyl)phenethyl)-4-(2-chlorophenyl)piperazine)] | 14.6 ± 1.12 | > 50 | 3.39 ± 0.11 | excellent selective activity |  |  |  |  |  |  |  |  |  |  |
